Blank lines part the entries; values can stand above or below the compound they belong to.
Assays:
[1] = rat, in vivo, ip, 2 mg/kg, 1 h
[2] = rat, in vivo, ip, 2 mg/kg, 1 h; remark: listed apart in the source
in vivo [3] = settings: rat, iv, 2 mg/kg
in vivo [4] = settings: rat, po, 2 mg/kg
in vivo [5] = settings: rat, plasma, ip, 2 mg/kg
in vivo [6] = settings: rat, brain, ip, 2 mg/kg
in vivo [7] = settings: rat, brain/plasma, ip, 2 mg/kg
in vivo [8] = settings: rat, brain/plasma, ip, 2 mg/kg; remark: listed apart in the source
P-gp = assay: in vitro; settings: dog, MDCK-MDR1

Cp(f)/dose [1]: 0.1 ng/mL
Druguptake(free)/dose [2]: 0.4 ng/mL
Vd (in vivo [3]): 2.4 L/kg
bioavailability (in vivo [4]): 19%
concentration at 1 h (in vivo [5]): 72 ng/mL
concentration at 1 h (in vivo [6]): 118 ng/mL
Kp at 1 h (in vivo [7]): 1.67
Kp uu at 1 h (in vivo [8]): 3.81
Papp (P-gp): 33 ×10⁻⁶ cm/s
Structure (SMILES): CCCc1nc(C)c2c(C)nc3ccc(OC)nc3n12

Structure (SMILES): Cn1nc(-c2ccccc2Cl)c2c3cc(F)cc(F)c3nnc21
Papp (P-gp): 36 ×10⁻⁶ cm/s

Structure (SMILES): CCCc1nc(C)c2c(C)nc3scnc3n12
Papp (P-gp): 68 ×10⁻⁶ cm/s

Structure (SMILES): COc1cc(OC)c2nnc3c(c(C4CC4)nn3C)c2c1
Papp (P-gp): 62 ×10⁻⁶ cm/s
